The target in data set [1] is T1, SmCB1 (Schistosoma mansoni, UniProt Q8MNY2, T185A/T300A). Nature of the data set: biochemical. The data set is classed as biochemical. The following applies: pH 5.5, read-out: second order rate constant k2nd SmCB1. As for the experimental part:
(§1) (A) Sensitivity of SmCB1 and its human ortholog cathepsin B (HuCB) to inhibitors. The second order rate constants were measured in a kinetic activity assay with the fluorogenic peptide substrate Cbz–Phe–Arg–AMC at pH 5.5. […] Resulting phenotypes observed at three time points were graded by the severity score ranging from 0 to 4, with 4 being the most severe (see Figure S2A,B).
(§2) Inhibition measurements were performed in triplicates in 96-well microplates (100 μL assay volume) at 37 °C. […] The kinetics of product release was continuously monitored in an Infinite M1000 microplate reader (Tecan) at excitation and emission wavelengths of 360 and 465 nm, respectively. The IC50 values were determined by nonlinear regression using GraFit software. To determine the inhibition constant k2nd, the enzyme (40 pM SmCB1 or 60 pM HuCB) was added to a mixture of the fluorogenic substrate Cbz–Phe–Arg–AMC (20 μM for SmCB1 and 33 μM for HuCB) and an inhibitor (0–1 μM) in the assay buffer under assay conditions as above. The hydrolysis of substrate was monitored for 30 min in a microplate reader as described above. […] The second order rate constant, k2nd, was determined by fitting to the linear equation kobs = (k2nd[I])/(1 + [S]/KM), where [S] is the substrate concentration, [I] is the inhibitor concentration, and KM is the Michaelis–Menten constant.

The subject of data set [2] is SmCB1. Put plainly: biochemical. The following applies: k2nd for SmCB1 to k2nd for human cathepsin B. The data set is classed as biochemical, Schistosoma mansoni. On the procedure:
as §1, §2

For data set [3], the system named is S. mansoni newly transformed schistosomula (NTS). Nature of the data set: Parasite assay and phenotype scoring of newly transformed schistosomula. The data set is classed as cell-based, Schistosoma mansoni. The following applies: score 0 to 4, 4 most severe. As for the experimental part: The NTS were exposed to 1 and 10 μM inhibitors, and the resulting phenotypes were graded 0 through 4 from the least to the most severe (Figure 4B).[25],[26] […] The investigated inhibitors were also tested for their cytotoxicity against four human cell lines over 72 h.
Newly transformed schistosomula (NTS) of S. mansoni were prepared by mechanically transforming infective larvae (cercariae) as described previously.[67] NTS (200–300 parasites) were incubated in 200 μL of Basch Medium 169[68] containing 5% heat-inactivated fetal bovine serum, 100 U/mL penicillin, and 100 μg/mL streptomycin at 5% CO2 and 37 °C.[67],[69] […] We use single word or phrase “descriptors”[35] to record changes in movement, shape, and translucence (Figure S2).
Figure S2. Antischistosomal activity, cytotoxicity, and plasma stability of selected vinyl sulfone inhibitors. A. Induction of phenotypic alterations by the inhibitors was determined with newly transformed schistosomula (NTS) of S. mansoni. The inhibitors were tested at 1 and 10 µM concentrations for 24, 48 and 72 h, and the resulting phenotypes are shown as descriptor s .2 B. Example […]
captured using a Zeiss Axiovert 40 C inverted microscope (10x objective) and a Zeiss AxioCam MRc digital camera controlled by AxioVision 40 (v. 4.8.1.0) software. Scale bar = 0.2 mm. C. […]

The target of a further data set is T2, human cathepsin B (HuCB) (Homo sapiens, UniProt P07858).
T2 construct: purchased Calbiochem
Nature of the data set: Second order rate constant (k2nd) of inhibition, human cathepsin B. The data set is classed as biochemical. The following applies: for second order rate constant k2nd HuCB: Cbz–Phe–Arg–AMC, pH 5.5, mean of triplicate; for kinact/KI: pH 5.5, read-out: second order rate constant k2nd HuCB. On the procedure: as §1, §2

Data set [4] is described as follows: In vitro plasma stability. The data set is classed as in vitro ADME. The following applies: 5 μM inhibitor, pooled human plasma, 30 min, 37°C. As for the experimental part: Finally, we evaluated the metabolic stability of the inhibitors in human plasma in vitro. The stability was expressed as the percentage of parental compound remaining in plasma after 30 min of incubation.
Figure S2. Antischistosomal activity, cytotoxicity, and plasma stability of selected vinyl sulfone inhibitors. A. Induction of phenotypic alterations by the inhibitors was determined with newly transformed schistosomula (NTS) of S. mansoni. The inhibitors were tested at 1 and 10 µM concentrations for 24, 48 and 72 h, and the resulting phenotypes are shown as descriptor s .2 B. Example of an inhibitor-induced phenotype in NTS of S. mansoni versus untreated controls. Images were captured using a Zeiss Axiovert 40 C inverted microscope (10x objective) and a Zeiss AxioCam MRc digital camera controlled by AxioVision 40 (v. 4.8.1.0) software. Scale bar = 0.2 mm. C. Cytotoxicity of the inhibitors towards four human cell lines expressed as % viability vs. untreated cells. Cells were treated with the indicated concentration of the compounds for 72 h and assayed by means of the XTT test (as described previously3). Standard deviation values were within 10% of the mean of tetraplicates. D. In vitro plasma stability was determined for 5 µM inhibitors incubated with pooled human plasma (Biowest) for 30 min at 37°C. The samples were deproteinized by acetonitrile a nd quantified by LC-MS (Exion LC AD/QTrap 6500+, AB Sciex). Data are expressed as a percentage of the remaining parent compound after 30 min incubation; standard deviations of the means ar e gi ve n for duplicate measurements.
(1 picture or pasted object on this page, not shown here)

The target in data set [5] is T1, SmCB1. Put plainly: SmCB1 kinetic inhibition assay (IC50) with fluorogenic substrate Cbz–Phe–Arg–AMC. The data set is classed as biochemical. The conditions noted are these: recombinant SmCB1, Cbz–Phe–Arg–AMC, pH 5.5; mean ± SE, triplicate; n.i.: no significant inhibition at 100 μM. The text has this: Thirty-four peptidomimetic vinyl sulfone analogs (including vinyl sulfonamides and vinyl sulfonate esters) were explored as potential inhibitors of SmCB1 to infer the structural requirements of the inhibitor-binding subsites in the enzyme active site cleft. The compound scaffold is defined by positions P3 through P1′, and the substitutions were selected to provide a high diversity at P2 and P1′ (Table 1). These two positions were recently reported to display large differences in the subsite interaction energy in response to their structural modifications.[10] The compounds were screened in vitro against recombinant SmCB1, and their IC50 values were determined using a kinetic inhibition assay with the fluorogenic substrate Cbz–Phe–Arg–AMC.
Inhibition measurements were performed in triplicates in 96-well microplates (100 μL assay volume) at 37 °C. […] The kinetics of product release was continuously monitored in an Infinite M1000 microplate reader (Tecan) at excitation and emission wavelengths of 360 and 465 nm, respectively. The IC50 values were determined by nonlinear regression using GraFit software. To determine the inhibition constant k2nd, the enzyme (40 pM SmCB1 or 60 pM HuCB) was added to a mixture of the fluorogenic substrate Cbz–Phe–Arg–AMC (20 μM for SmCB1 and 33 μM for HuCB) and an inhibitor (0–1 μM) in the assay buffer under assay conditions as above. The hydrolysis of substrate was monitored for 30 min in a microplate reader as described above. An observed rate constant, kobs, was calculated at each inhibitor concentration by fitting the progress curve to the equation P = vi/kobs(1 – e^–kobst), where P is the product formation, vi is the initial velocity, and t is the reaction time. For both enzymes, kobs varied linearly with the inhibitor concentration showing that the dependence of kobs on the inhibitor concentration is nonsaturating. […] The second order rate constant, k2nd, was determined by fitting to the linear equation kobs = (k2nd[I])/(1 + [S]/KM), where [S] is the substrate concentration, [I] is the inhibitor concentration, and KM is the Michaelis–Menten constant. KM values determined for SmCB1 and HuCB were 25 and 38 μM, respectively.

Data set [6] has as its target T1, SmCB1. On the set-up: method as in PMID 21832058. The conditions noted are these: reference compounds; SmCB1, Cbz–Phe–Arg–AMC, pH 5.5; read-out: Inhibition IC50; cited from earlier work.

Values joined by “and” are separate entries in the source; they are usually repeats but may differ in a detail not shown here. Identical values can stand only once. Like-named read-outs stand apart in the source and are kept apart here.

The term IC50 denotes the concentration that gives 50% inhibition.

T1 sequence (Q8MNY2 87-340 T185A/T300A): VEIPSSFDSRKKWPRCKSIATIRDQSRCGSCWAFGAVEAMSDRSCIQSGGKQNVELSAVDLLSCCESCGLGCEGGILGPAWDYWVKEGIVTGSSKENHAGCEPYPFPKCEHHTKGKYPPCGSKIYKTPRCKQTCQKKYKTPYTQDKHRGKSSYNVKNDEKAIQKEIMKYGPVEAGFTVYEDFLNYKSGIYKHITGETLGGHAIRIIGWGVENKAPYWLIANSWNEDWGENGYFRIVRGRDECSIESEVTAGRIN

With `CN1CCN(C(=O)N[C@@H](Cc2ccccc2)C(=O)N[C@H](/C=C/S(=O)(=O)NOCc2ccccc2)CCc2ccccc2)CC1` [WRR-286], the kinact/KI on SmCB1 [1] was 200000 M⁻¹ s⁻¹; on human cathepsin B (HuCB), 33600 M⁻¹ s⁻¹. Also, the selectivity ratio entry in the data set with SmCB1 [2] is listed as “about 6.0”. Besides, the severity score came out at 0 in data set [3] (1 μM, 24 hours); 0 in data set [3] (1 μM, 48 hours); 4 in data set [3] (1 μM, 72 hours); 0 in data set [3] (10 μM, 24 hours); 4 in data set [3] (10 μM, 48 hours); 4 in data set [3] (10 μM, 72 hours). The “second order rate constant k2nd HuCB” value on human cathepsin B (HuCB) is listed as 33 618 M^–1 s^–1. The “percentage of remaining parent compound in plasma” value in data set [4] was 107%. Further, the IC50 on SmCB1 [5] was ~0.6 nM and 0.61 nM.

Regarding `CC(C)C[C@H](NC(=O)N1CCOCC1)C(=O)N[C@H](/C=C/S(=O)(=O)c1ccccc1)CCc1ccccc1` [K11017, morpholino urea-leucyl-homophenylalanyl-vinylsulfone-phenyl], the IC50 at SmCB1 [6] is 1.71 ± 0.13 nM.

For the compound `CCOC(=O)C1CCN(C(=O)N[C@@H](Cc2ccc(O)cc2)C(=O)N[C@H](/C=C/S(=O)(=O)c2ccccn2)CCc2ccccc2)CC1` [WRR-391], the figures for the kinact/KI at SmCB1 [1] and on human cathepsin B (HuCB) were 208000 M⁻¹ s⁻¹ and 153000 M⁻¹ s⁻¹, respectively. Moreover, the selectivity ratio in the data set with SmCB1 [2] is listed as around 1.4. Besides, the severity score in data set [3] (1 μM, 24 hours) was found to be 0; in data set [3] (1 μM, 48 hours), 0; in data set [3] (1 μM, 72 hours) it was 0; in data set [3] (10 μM, 24 hours), 0; in data set [3] (10 μM, 48 hours), 0; in data set [3] (10 μM, 72 hours), 4. Also, on human cathepsin B (HuCB), the “second order rate constant k2nd HuCB” value is 152 806 M^–1 s^–1. In addition, the “percentage of remaining parent compound in plasma” value in data set [4] was 54%. For the same compound, the IC50 at SmCB1 [5] is ~0.2 nM and 0.24 nM.

As for `CN1CCN(C(=O)N[C@@H](Cc2ccccc2)C(=O)N[C@H](/C=C/S(=O)(=O)c2ccccc2)CCc2ccccc2)CC1` [K11777, N-methylpiperazine-phenylalanyl-homophenylalanyl-vinylsulfone-phenyl, reference compound], at SmCB1 [6], the IC50 is 2.09 ± 0.08 nM. For the same compound, the severity score in data set [3] (1 μM, 24 hours) came to 0; in data set [3] (1 μM, 48 hours) it was 0; in data set [3] (1 μM, 72 hours), 3; in data set [3] (10 μM, 24 hours), 0; in data set [3] (10 μM, 48 hours), 1; in data set [3] (10 μM, 72 hours), 3. In data set [4], the “percentage of remaining parent compound in plasma” value is 88%.

The record behind these values is paper PMC8154419, “Druggable Hot Spots in the Schistosomiasis Cathepsin B1 Target Identified by Functional and Binding Mode Analysis of Potent Vinyl Sulfone Inhibitors” (ACS Infectious Diseases, 2020).
